Reference: patent publication US10000488B2, “Heterocyclic compound” (TAKEDA PHARMACEUTICAL COMPANY LIMITED, priority 2014, dated 2018)

Legend:
RORγt [1] = target: T1, RORγt (Homo sapiens, UniProt P51449); test: Cofactor recruitment test (Alpha Screen, biotinylated SRC-1 peptide); assay type: biochemical; conditions: read-out: signal value inhibitory rate (%) at test compound 1 μM
T1 sequence (P51449 1-497 isoform P51449-2): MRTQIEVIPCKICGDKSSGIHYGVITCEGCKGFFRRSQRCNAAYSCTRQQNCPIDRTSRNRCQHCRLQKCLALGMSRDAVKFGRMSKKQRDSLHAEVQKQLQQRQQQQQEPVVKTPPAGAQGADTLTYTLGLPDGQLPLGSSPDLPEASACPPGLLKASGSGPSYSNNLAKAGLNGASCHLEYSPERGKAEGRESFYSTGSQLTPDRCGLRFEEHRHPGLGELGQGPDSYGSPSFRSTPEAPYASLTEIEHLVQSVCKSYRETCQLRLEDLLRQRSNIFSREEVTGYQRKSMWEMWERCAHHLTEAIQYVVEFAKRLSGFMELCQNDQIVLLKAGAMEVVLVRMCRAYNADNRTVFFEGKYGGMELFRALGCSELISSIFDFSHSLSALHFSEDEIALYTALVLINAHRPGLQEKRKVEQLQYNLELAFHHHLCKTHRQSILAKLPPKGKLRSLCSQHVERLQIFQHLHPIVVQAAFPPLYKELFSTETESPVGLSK
Experimental: Cofactor Recruitment Test
Cofactor recruitment test was performed by Alpha Screen (Histidine Detection Kit, PerkinElmer) method. First, a test compound was diluted with an assay buffer (50 mM Tris-HCl (pH 7.5), 50 mM KCl, 1 mM DTT, 0.1% BSA) and added to a 384 well plate by 5 μL. […] The mixture was stood in a dark place for 1 hr, and the signal value was measured by Envision (PerkinElmer).

RORγt [2] = target: T1, RORγt; test: Jurkat reporter test (human IL-17 ROR response element luciferase reporter, RORγt vector); assay type: cell-based; conditions: test compound 3 μM; Jurkat cells; read-out: luminescence level inhibitory rate (%) at test compound 3 μM
Experimental: The Jurkat cells used for the reporter test were cultured in a culture medium (RPMI (Invitrogen), 10% FCS (AusGeneX), 100 U/mL penicillin, 100 μg/mL streptomycin). On the day of the test, 4×10^7 cells were recovered by a centrifugal operation (1000 rpm, for 5 min) and suspended in PBS (phosphate buffered saline) (Invitrogen). Thereafter, the cells were recovered again by a centrifugal operation, and suspended in 2 mL of R buffer (NEON transfection kit, Invitrogen). […] Gene transfer was performed by Electroporation apparatus (NEON, Invitrogen) under the conditions of pulse voltage 1350 V, interval 10 milliseconds, number of times 3. The cells after gene transfer were suspended in 40 mL of a reaction medium (RPMI, 10% Lipid reduced FCS (HyClone), 10 mM HEPES (pH 7.5), 100 U/mL penicillin, 100 μg/mL streptomycin, 5 μM lovastatin), and plated in a 96 well plate by 90 μL. A test compound diluted with the reaction medium was added by 10 μL, and the cells were cultured overnight in an incubator. Bright-Glo (Promega) was added by 100 μL, and the mixture was stirred at room temperature for 10 min, and the luminescence level was measured by Envision (PerkinElmer).

RORγt [3] = target: T1, RORγt; test: RORγt binding test using fluorescent-labeled synthetic ligand (TR-FRET); conditions: test compound 1 μM; read-out: binding inhibitory rate (%) of fluorescent-labeled synthetic ligand to RORγt at test compound 1 μM
Experimental: RORγt Binding Test Using Fluorescent-Labeled Synthetic Ligand
The binding activity of the test compound to RORγt was measured by a time resolved fluorescence resonance energy transfer (TR-FRET) utilizing histidine-tagged RORγt, fluorescent-labeled synthetic ligand, and terbium-labeled anti-histidine tag antibody (Invitrogen). First, a test compound diluted with an assay buffer (20 mM Tris-HCl (pH 7.5), 100 mM NaCl, 1 mM DTT, 0.1% BSA) was added to a 384 well plate by 3 μL. Then, RORγt diluted with an assay buffer to 240 nM was added by 3 μL, after which fluorescent-labeled synthetic ligand diluted with the assay buffer to 12 μM was added by 3 μL, and the mixture was stood at room temperature for 20 min. Thereafter, a terbium-labeled anti-histidine tag antibody diluted with the assay buffer to 8 nM was added by 3 μL. The mixture was stood at room temperature for 20 min, and fluorescence intensity (excitation wavelength 320 nm, fluorescence wavelength 520 nm, delay time 100 microseconds) was measured by Envision (PerkinElmer).

CC(C)n1c(=O)n(CC2CC2)c(=O)c2cc(NC(=O)N3CCC[C@@H](NC(=O)c4cc(F)ccc4F)C3)c(F)cc21 [Example 287, (3R)-N-(3-(cyclopropylmethyl)-7-fluoro-1-isopropyl-2,4-dioxo-1,2,3,4-tetrahydroquinazolin-6-yl)-3-((2,5-difluorobenzoyl)amino)piperidine-1-carboxamide]
inhibition at 1 µM (RORγt [1]): 111%
inhibition at 3 µM (RORγt [2]): 100%
inhibition at 1 µM (RORγt [3]): 102%

CC(C)n1c(=O)n(CC2CC2)c(=O)c2cc(NC(=O)N3CCC[C@@H](NC(=O)c4cccc(Cl)c4)C3)ccc21 [Example 248, (3R)-3-((3-chlorobenzoyl)amino)-N-(3-(cyclopropylmethyl)-1-isopropyl-2,4-dioxo-1,2,3,4-tetrahydroquinazolin-6-yl)piperidine-1-carboxamide]
inhibition at 1 µM (RORγt [1]): 104%
inhibition at 3 µM (RORγt [2]): 104%
inhibition at 1 µM (RORγt [3]): 102%

Cc1ccc(F)c(C(=O)N[C@@H]2CCCN(C(=O)Nc3ccc4c(c3)c(=O)n(CC3CC3)c(=O)n4C(C)C)C2)c1 [Example 259, (3R)-N-(3-(Cyclopropylmethyl)-1-isopropyl-2,4-dioxo-1,2,3,4-tetrahydroquinazolin-6-yl)-3-((2-fluoro-5-methylbenzoyl)amino)piperidine-1-carboxamide]
inhibition at 1 µM (RORγt [1]): 102%
inhibition at 3 µM (RORγt [2]): 102%
inhibition at 1 µM (RORγt [3]): 102%

CC(C)n1c(=O)n(CC2CC2)c(=O)c2cc(NC(=O)N3CCCC(NC(=O)Nc4ccccc4)C3)ccc21 (stereo not drawn) [Example 146, N-(3-(cyclopropylmethyl)-1-isopropyl-2,4-dioxo-1,2,3,4-tetrahydroquinazolin-6-yl)-3-((phenylcarbamoyl)amino) piperidine-1-carboxamide]
inhibition at 1 µM (RORγt [1]): 103%
inhibition at 3 µM (RORγt [2]): 101%
inhibition at 1 µM (RORγt [3]): 102%

CC(C)n1c(=O)n(CC2CC2)c(=O)c2cc(NC(=O)[C@@H]3CCC[C@@H]3NC(=O)c3ccc(C#N)cc3)ccc21 [Example 264, 4-cyano-N-((1S,2R)-2-((3-(cyclopropylmethyl)-1-isopropyl-2,4-dioxo-1,2,3,4-tetrahydroquinazolin-6-yl)carbamoyl)cyclopentyl)benzamide]
inhibition at 1 µM (RORγt [1]): 110%
inhibition at 3 µM (RORγt [2]): 102%
inhibition at 1 µM (RORγt [3]): 102%

Cc1cc(C(=O)N[C@@H]2CCCN(C(=O)Nc3ccc4c(c3)c(=O)n(CC3CC3)c(=O)n4C(C)C)C2)ccc1C#N [Example 249, (3R)-3-((4-cyano-3-methylbenzoyl)amino)-N-(3-(cyclopropylmethyl)-1-isopropyl-2,4-dioxo-1,2,3,4-tetrahydroquinazolin-6-yl)piperidine-1-carboxamide]
inhibition at 1 µM (RORγt [1]): 110%
inhibition at 3 µM (RORγt [2]): 103%
inhibition at 1 µM (RORγt [3]): 102%

CC(C)n1c(=O)n(CC2CC2)c(=O)c2cc(NC(=O)N3CCO[C@@H](C(=O)Nc4cnc(C#N)c(F)c4)C3)ccc21 [Example 103, (2R)-N^2-(6-cyano-5-fluoropyridin-3-yl)-N^4-(3-(cyclopropylmethyl)-1-isopropyl-2,4-dioxo-1,2,3,4-tetrahydroquinazolin-6-yl)morpholine-2,4-dicarboxamide]
inhibition at 1 µM (RORγt [1]): 102%
inhibition at 3 µM (RORγt [2]): 103%
inhibition at 1 µM (RORγt [3]): 101%

CC(C)n1c(=O)n(CC2CC2)c(=O)c2cc(NC(=O)N3CCC[C@@H](NC(=O)c4ccc(C#N)cc4)C3)c(F)cc21 [Example 284, (3R)-3-((4-cyanobenzoyl)amino)-N-(3-(cyclopropylmethyl)-7-fluoro-1-isopropyl-2,4-dioxo-1,2,3,4-tetrahydroquinazolin-6-yl)piperidine-1-carboxamide]
inhibition at 1 µM (RORγt [1]): 112%
inhibition at 3 µM (RORγt [2]): 102%
inhibition at 1 µM (RORγt [3]): 102%

CC(C)n1c(=O)n(C[C@@H]2CCCO2)c(=O)c2cc(NC(=O)N3CCO[C@@H](C(=O)Nc4ccc(C#N)c(Cl)c4)C3)c(F)cc21 [Example 357, (2R)—N^2-(3-chloro-4-cyanophenyl)-N^4-(7-fluoro-1-isopropyl-2,4-dioxo-3-((2S)-tetrahydrofuran-2-ylmethyl)-1,2,3,4-tetrahydroquinazolin-6-yl)morpholine-2,4-dicarboxamide]
inhibition at 1 µM (RORγt [1]): 107%
inhibition at 3 µM (RORγt [2]): 106%
inhibition at 1 µM (RORγt [3]): 101%

CC(C)n1c(=O)n(CC2CC2)c(=O)c2cc(NC(=O)N3CCC[C@@H](NC(=O)c4ccc5c(c4)CCO5)C3)ccc21 [Example 251, (3R)-N-(3-(cyclopropylmethyl)-1-isopropyl-2,4-dioxo-1,2,3,4-tetrahydroquinazolin-6-yl)-3-((2,3-dihydro-1-benzofuran-5-ylcarbonyl)amino)piperidine-1-carboxamide]
inhibition at 1 µM (RORγt [1]): 105%
inhibition at 3 µM (RORγt [2]): 102%
inhibition at 1 µM (RORγt [3]): 102%

Cc1ccc(F)c(C(=O)N[C@@H]2CCCN(C(=O)Nc3cc4c(=O)n(CC5CC5)c(=O)n(C(C)C)c4cc3F)C2)c1 [Example 283, (3R)-N-(3-(cyclopropylmethyl)-7-fluoro-1-isopropyl-2,4-dioxo-1,2,3,4-tetrahydroquinazolin-6-yl)-3-((2-fluoro-5-methylbenzoyl)amino)piperidine-1-carboxamide]
inhibition at 1 µM (RORγt [1]): 108%
inhibition at 3 µM (RORγt [2]): 101%
inhibition at 1 µM (RORγt [3]): 102%

CC(C)n1c(=O)n(CC2CC2)c(=O)c2cc(NC(=O)N3CCC[C@@H](NC(=O)c4ccc(CNC(=O)OC(C)(C)C)cc4)C3)ccc21 [Example 274, tert-Butyl (4-(((3R)-1-((3-(cyclopropylmethyl)-1-isopropyl-2,4-dioxo-1,2,3,4-tetrahydroquinazolin-6-yl)carbamoyl)piperidin-3-yl)carbamoyl)benzyl) carbamate]
inhibition at 1 µM (RORγt [1]): 89%
inhibition at 3 µM (RORγt [2]): 101%
inhibition at 1 µM (RORγt [3]): 102%

CC(C)n1c(=O)n(CC2CC2(F)F)c(=O)c2cc(NC(=O)N3CCOC(C(=O)Nc4cnc(C#N)c(Cl)c4)C3)c(F)cc21 (mixture of isomers) [Example 356, (2R)—N^2-(5-chloro-6-cyanopyridin-3-yl)-N^4-(3-((2,2-difluorocyclopropyl)methyl)-7-fluoro-1-isopropyl-2,4-dioxo-1,2,3,4-tetrahydroquinazolin-6-yl)morpholine-2,4-dicarboxamide (mixture of two stereoisomers)]
inhibition at 1 µM (RORγt [1]): 108%
inhibition at 3 µM (RORγt [2]): 107%
inhibition at 1 µM (RORγt [3]): 102%

CC(C)n1c(=O)n(CC2CC2)c(=O)c2cc(NC(=O)N3CCC[C@@H](NC(=O)c4ccc(C#N)s4)C3)c(F)cc21 [Example 292, (3R)-3-(((5-cyano-2-thienyl)carbonyl)amino)-N-(3-(cyclopropylmethyl)-7-fluoro-1-isopropyl-2,4-dioxo-1,2,3,4-tetrahydroquinazolin-6-yl)piperidine-1-carboxamide]
inhibition at 1 µM (RORγt [1]): 112%
inhibition at 3 µM (RORγt [2]): 101%
inhibition at 1 µM (RORγt [3]): 102%

CC(C)n1c(=O)n(CC2CCOC2)c(=O)c2cc(NC(=O)N3CCO[C@@H](C(=O)Nc4ccc(C#N)c(Cl)c4)C3)c(F)cc21 (stereo partly drawn) [Example 335, (2R)—N^2-(3-chloro-4-cyanophenyl)-N^4-(7-fluoro-1-isopropyl-2,4-dioxo-3-(tetrahydrofuran-3-ylmethyl)-1,2,3,4-tetrahydroquinazolin-6-yl)morpholine-2,4-dicarboxamide]
inhibition at 1 µM (RORγt [1]): 108%
inhibition at 3 µM (RORγt [2]): 106%
inhibition at 1 µM (RORγt [3]): 101%
